This note sets out measurements from patent US10028938B2, “Antiviral agents and uses thereof” (Griffith University, priority 2014, dated 2018).

Where two headings read alike, the source gives them in different places.

Test [1] addresses T1, hPIV-3 HN (UniProt P08492).
T1 sequence (P08492 1-572): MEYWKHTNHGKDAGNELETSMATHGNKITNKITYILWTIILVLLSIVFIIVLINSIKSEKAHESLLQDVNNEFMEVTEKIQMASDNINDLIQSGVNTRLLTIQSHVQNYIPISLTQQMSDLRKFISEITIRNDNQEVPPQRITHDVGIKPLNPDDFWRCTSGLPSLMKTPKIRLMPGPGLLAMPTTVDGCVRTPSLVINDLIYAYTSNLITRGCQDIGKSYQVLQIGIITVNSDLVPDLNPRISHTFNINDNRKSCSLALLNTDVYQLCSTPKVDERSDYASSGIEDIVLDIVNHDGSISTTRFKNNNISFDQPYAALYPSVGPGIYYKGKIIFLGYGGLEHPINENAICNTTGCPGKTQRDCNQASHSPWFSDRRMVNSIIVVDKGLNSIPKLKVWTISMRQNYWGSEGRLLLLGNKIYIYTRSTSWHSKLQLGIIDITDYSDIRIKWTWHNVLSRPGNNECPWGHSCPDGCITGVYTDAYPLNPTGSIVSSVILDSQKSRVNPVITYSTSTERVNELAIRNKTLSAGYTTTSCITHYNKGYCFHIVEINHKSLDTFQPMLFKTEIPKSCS
Format: biochemical, hPIV-3 (strain C-243). Set-up: rows headed: HI Mean IC50; hPIV-3 HN; 3 independent experiments; fold improvement in HI assay; other: versus 6; hPIV-3 HN HI IC50; other: text; other: text, unit given as M.

The target in test [2] is T1, hPIV-3 HN. Format: biochemical, hPIV-3 (strain C-243). Set-up: rows headed: NI Mean IC50; hPIV-3 HN; 3 independent experiments; Ki; Km value for MUN; other: whole hPIV-3 virus, [I]=0; fold improvement in NI assay; other: versus 6; hPIV-3 HN NI IC50; other: text; other: text, unit given as M.
Test [3] addresses hPIV-3 HN (Human parainfluenza 3 virus, UniProt P08492). Format: biochemical, hPIV-3 (strain C-243). To be noted: Table 5; read-out: hPIV-3 NI (IC50 values).
The target in test [4] is hPIV-1 NI (Human parainfluenza 1 virus, UniProt P16071). Nature of the test: biochemical. On the procedure: IC50 values for a number of compounds of the first aspect were determined by standard assay methods previously described in Guillon, P et al, Nature Communications (2014).
Test [5] deals with T1, hPIV-3 HN. Format: biochemical, hPIV-3 (strain C-243). Also on record: rows headed: NI hPIV-3 IC50. To be noted: Table 4; read-out: NI hPIV-3 IC50.
The test system of test [6] is hPIV-3. Nature of the test: In situ ELISA virus growth inhibition. Format: cell-based, hPIV-3 (strain C-243). Particulars: Human respirovirus 3; Table 4; A549 cells, hPIV-3; read-out: Cell-based ELISA IC50.
The mark [7] stands for this setting: Table 2 prints no unit, μM, hPIV-3 HN, 3 independent experiments, read-out: NI Mean IC50.
[8] abbreviates: Table 2 prints no unit, μM, hPIV-3 HN, 3 independent experiments, read-out: HI Mean IC50.

Sequence of hPIV-1 NI (P16071 whole entry): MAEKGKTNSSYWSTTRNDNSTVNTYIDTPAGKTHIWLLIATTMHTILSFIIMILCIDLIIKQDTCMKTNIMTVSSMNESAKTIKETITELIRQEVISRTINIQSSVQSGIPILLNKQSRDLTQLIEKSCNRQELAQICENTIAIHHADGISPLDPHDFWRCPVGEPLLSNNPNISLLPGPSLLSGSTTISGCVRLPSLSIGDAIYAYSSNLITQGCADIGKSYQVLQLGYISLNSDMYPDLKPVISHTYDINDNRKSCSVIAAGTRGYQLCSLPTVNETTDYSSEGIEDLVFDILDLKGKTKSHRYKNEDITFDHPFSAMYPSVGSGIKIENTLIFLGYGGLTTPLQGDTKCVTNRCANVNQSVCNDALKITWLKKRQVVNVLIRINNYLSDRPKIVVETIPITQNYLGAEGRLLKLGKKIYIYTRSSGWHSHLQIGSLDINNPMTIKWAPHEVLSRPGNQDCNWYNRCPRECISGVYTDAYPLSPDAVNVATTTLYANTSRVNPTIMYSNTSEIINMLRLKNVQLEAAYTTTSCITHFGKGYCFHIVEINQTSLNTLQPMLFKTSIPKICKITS

As to `CC(=O)NC1C(O)C=C(C(=O)O)OC1C(O)C(O)CO` (stereo not shown) [Compound 2, Neu5Ac2en, reference compound], in test [1] (read-out: hPIV-3 HN HI IC50), the IC50 was found to be 1440 µM.

As for `CC(=O)NC1C(N=[N+]=[N-])C=C(C(=O)O)OC1C(O)C(O)CO` (stereo not shown) [Compound 3, 4-azido-4-deoxy-Neu5Ac2en, reference compound], the IC50 in test [2] (setting [7]) was determined as 138 µM; in test [1] (read-out: hPIV-3 HN HI IC50), 210 µM.

Consider `CC(C)C(=O)NC1C(O)C=C(C(=O)O)OC1C(O)C(O)CO` (stereo not shown) [Compound 5, reference compound], for which the 50% inhibitory concentration (IC50) in test [2] (setting [7]) is 188 µM; in test [1] (setting [8]), 358 µM.

For the compound `COCc1cn([C@H]2C=C(C(=O)O)O[C@@H]([C@H](O)[C@H](O)CO)[C@@H]2NC(C)=O)nn1` [Compound 7, Sodium 5-acetamido-2,6-anhydro-3,4,5-trideoxy-4-(4-methoxymethyl-[1,2,3,]triazol-1-yl)-D-glycero-D-galacto-non-2-enonate], the IC50 was determined as 154 µM in test [2] (setting [7]); 154 µM in test [2] (read-out: hPIV-3 HN NI IC50); 148 µM in test [3]; 312 µM in test [1] (setting [8]); 313 µM in test [1] (read-out: hPIV-3 HN HI IC50); 19.8 µM in test [4].

`COCc1cn([C@H]2C=C(C(=O)O)O[C@@H]([C@H](O)[C@H](O)CO)[C@@H]2NC(=O)C(C)C)nn1` [Compound 9, Sodium 2,6-anhydro-3,4,5-trideoxy-5-isobutyramido-4-(4-methoxymethyl-[1,2,3,]triazol-1-yl)-D-glycero-D-galacto-non-2-enonate]: the IC50 in test [2] (setting [7]) worked out at 14.2 µM; in test [2] (read-out: hPIV-3 HN NI IC50) it was 14.2 µM; in test [3], 13.1 µM; in test [1] (setting [8]), 13.8 µM; in test [1] (read-out: hPIV-3 HN HI IC50), 13.8 µM; in test [4] it was 0.489 µM.

In the case of `CC(C)C(=O)NC1C(N=[N+]=[N-])C(F)C(F)(C(=O)O)OC1[C@H](O)[C@H](O)CO` (stereo partly shown) [I-70], the IC50 in test [5] worked out at 6 µM; in test [6] it was 14 µM.

As for `CC(C)C(=O)NC1C([C@H](O)[C@H](O)CO)OC(F)(C(=O)O)C(F)C1n1cc(-c2ccccc2)nn1` (stereo partly shown) [I-79], the IC50 in test [5] is 63 µM; in test [6], 45 µM.

As to `COCc1cn(C2C(NC(=O)C(C)C)C(C(O)C(O)CO)OC(F)(C(=O)O)C2F)nn1` (stereo not shown) [I-104], the IC50 in test [5] was found to be 4 µM; in test [6], 25 µM.

`COCc1cnnn1[C@H]1C=C(C(=O)O)O[C@@H]([C@H](O)C(O)CO)[C@@H]1NC(C)=O` (stereo partly drawn) [IE1172-87, Sodium 5-acetamido-2,6-anhydro-3,4,5-trideoxy-4-(5-methoxymethyl-[1,2,3,]triazol-1-yl)-D-glycero-D-galacto-non-2-enonate]: the IC50 worked out at 77.4 µM in test [3] and 92.8 µM in test [4].

In the case of `CC(=O)N[C@H]1[C@H]([C@H](O)C(O)CO)OC(C(=O)O)=C[C@@H]1n1nnc(-c2ccccc2)c1-c1ccccc1` (stereo partly drawn) [IE1172-102, Sodium 5-acetamido-2,6-anhydro-3,4,5-trideoxy-4-(4,5-diphenyl-[1,2,3,]triazol-1-yl)-D-glycero-D-galacto-non-2-enonate], the IC50 was above 1000 µM in test [3] and 793 µM in test [4].

As to `COCc1cn(C2C(F)[C@](F)(C(=O)O)OC([C@H](O)[C@H](O)CO)[C@@H]2NC(=O)C(C)C)nn1` (stereo partly drawn) [IE1257-24, 3,4,5-Trideoxy-3-fluoro-5-isobutyramido-4-(4-methoxymethyl-[1,2,3,]triazol-1-yl)-D-erythro-β-L-gluco-non-2-ulopyranosonic fluoride], the IC50 in test [3] worked out at 8.49 µM; in test [4], 0.36 µM.

Take `CC(=O)N[C@H]1[C@H]([C@H](O)C(O)CO)OC(C(=O)O)=C[C@@H]1n1cc(-c2ccccc2Br)nn1` (stereo partly drawn) [IE1257-84, Sodium 5-acetamido-2,6-anhydro-4-(4-(2-bromophenyl)-[1,2,3,]triazol-1-yl)-3,4,5-trideoxy-D-glycero-D-galacto-non-2-enonate]: the IC50 stood at 2.19 µM in test [3] and 24.9 µM in test [4].
